# Assay results as given in patent publication US11897863B2, “Indazole amine derivative, preparation method therefor and medical use thereof” (ZHEJIANG HISUN PHARMACEUTICAL CO., LTD., priority 2018, dated 2024).
# pIC50: −log10 of the molar value.
# Key:
# [1] = Solubility test in phosphate buffer solution (PBS, pH7.4); format: physicochemical; conditions: PBS pH 7.4, room temperature, LC-UV
# Experimental: 1.5 mg of the test compound was taken, and PBS was added thereto to prepare the test solution with theoretical concentration of 2 mg·mL^−1. The test solution was ultrasonicated for 10 min, and rotated on a rotating tray at room temperature for at least 8 h. After the rotation treatment, the test solution was ultrasonicated for 10 min and centrifuged at 13000 rpm for 15 min. 100 μL of supernatant was transferred to a 0.6 mL new tube for spinning and rinsing for 5 min. 500 μL of supernatant was transferred into the above rinsed 0.6 mL tube. Then the tube was centrifuged at 13000 rpm for 15 min, and the supernatant was taken (or diluted) for analysis by LC-UV. Sample concentration was quantified by standard curve fitting (3 points).
# [2] = tested on: TNF-α secretion in THP-1 cells; experiment: cells; conditions: Homo sapiens, THP-1, 5 h, read-out: IC50 in inhibiting TNF-α secretion in THP-1 cells
# Experimental: Method for Determining THP-1 Cell Activity
# In this experiment, TNF-α secretion was triggered by lipopolysaccharide (LPS) incubation.
# After induced differentiation under the condition of 37° C. and 5% CO2 for 48 h, adherent macrophages were produced. Then PMA supernatant was removed and PBS was used to wash the cells once. In each case, all the drugs were dissolved in 100% DMSO to obtain an initial concentration of 10 mM. The drugs were filtered with 0.22 μm sterile filter membrane before use. LPS was dissolved in PBS with an initial concentration of 1 mg/mL. During use, it was diluted to 20 μg/mL with PBS. […] 200 μL of drugs were added to each well, and 50 μL of 20 μg/ml LPS (final concentration: 4 μg/mL) was added to each well. They were incubated in a 5% CO 2 incubator at 37° C. for 5 h. […]
# Determination by using TNF-α ELISA kit: the amount of TNF-α was determined by R&D System Human TNF-α ELISA kit. […] 50 μL of Stop Solution (2N sulfuric acid stop solution) was added to each well and evenly mixed, and the absorbance at 450 nm was measured with microplate reader within 30 min. Compared with the fluorescence intensity ratio of the control group, the inhibition rate of the compound at each concentration was calculated, and then the IC 50 value of the compound was calculated by fitting the nonlinear curve of logarithmic concentration-inhibition rate with GraphPad Prism5.
SMILES,"Solubility in phosphate buffer solution (PBS, pH 7.4) [1] [uM]",pIC50 [2]
CC(C)(O)CCn1cc2cc(NC(=O)c3cccc(C(F)(F)F)n3)c(C(C)(C)O)cc2n1 [BAY-1834845],6.7,
"CN(C)CCn1cc2cc(NC(=O)c3cccc(C(F)(F)F)n3)c(C(C)(C)O)cc2n1 [Compound 1, N-(2-(2-(dimethylamino)ethyl)-6-(2-hydroxypropan-2-yl)-2H-indazol-5-yl)-6-(trifluoromethyl)pyridin-2-carboxamide]",,7.26
